Measurements reported in patent US11547681B2, “N-acylethanolamide derivatives and uses thereof” (ELIEM THERAPEUTICS, INC., priority 2016, dated 2023).

Assay: in vitro
Conditions: male; for Measured concentration of PEA (analyte) / % Remaining of Initial / Measured concentration of analyte PEA, 0 min / Measured concentration of analyte PEA, 10 min / Measured concentration of analyte PEA, 20 min / Measured concentration of analyte PEA, 30 min / Measured concentration of analyte PEA, 60 min / % Remaining of Initial, 0 min / % Remaining of Initial, 10 min / % Remaining of Initial, 20 min / % Remaining of Initial, 30 min / % Remaining of Initial, 60 min: 1 μM; for % Remaining of Initial / microsomal CLint at 1 μM / half-life at 1 μM / % Remaining of Initial, 0 min / % Remaining of Initial, 10 min / % Remaining of Initial, 20 min / % Remaining of Initial, 30 min / % Remaining of Initial, 60 min: microsomes
Description: (§1) Reaction mixture, minus cofactors, was prepared as described below. Test article was added into the reaction mixture at a final concentration of 1 μM. […] An aliquot of the reaction mixture (without cofactor) was equilibrated in a shaking water bath at 37° C. for 3 minutes. The reaction was initiated by the addition of cofactor, and the mixture was incubated in a shaking water bath at 37° C. Aliquots (100 μL) were withdrawn at 0, 10, 20, 30, and 60 minutes. Test article samples were immediately combined with 300 μL of ice-cold acetonitrile containing 1% formic acid. Control samples were immediately combined with 400 μL of ice-cold 50/50 acetonitrile (ACN)/dH2O containing 0.1% formic acid and internal standard to terminate the reaction. Samples were then mixed and centrifuged to precipitate proteins. Calibration standards were prepared in matched matrix. Samples and standards were assayed by LC-MS/MS using electrospray ionization for both dosed prodrug and expected drug (PEA). Analytical conditions are outlined in Appendix 8-1. Test article concentration at each time point was compared to test article concentration at time 0 to determine the percent remaining at each time point. Half-lives were calculated using GraphPad software, fitting to a single-phase exponential decay equation.
Reaction mixture, minus cofactors, was prepared as described below. Test article was added into the reaction mixture at a final concentration of 1 μM. […] An aliquot of the reaction mixture (without cofactor) was equilibrated in a shaking water bath at 37° C. for 5 minutes. Reaction was initiated by the addition of cofactor, and the mixture was incubated in a shaking water bath at 37° C. Aliquots (100 μL) were withdrawn at 0, 10, 20, 30, and 60 minutes. Test article samples were immediately combined with 300 μL of ice-cold acetonitrile containing 1% formic acid. Control samples were immediately combined with 400 μL of ice-cold 50/50 acetonitrile (ACN)/dH2O containing 0.1% formic acid and internal standard to terminate the reaction. Samples were then mixed and centrifuged to precipitate proteins. Calibration standards were prepared in matched matrix. Samples and standards were assayed by LC-MS/MS using electrospray ionization for both the dosed prodrug and the expected drug (PEA). Analytical conditions are outlined in Appendix 10-1. Test article concentration at each time point was compared to the test article concentration at time 0 to determine the percent remaining at each time point. Half-lives were calculated using GraphPad software, fitting to a single-phase exponential decay equation.
as §1, with “minutes. Reaction” for “minutes. The reaction”, “300 μL,” for “300 μL”, “Appendix 13-1.” for “Appendix 8-1.”
Reaction mixture, minus cofactors, was prepared as described below.

[1] = Beagle, dog, calculated value in parentheses

Structure (SMILES): CCCCCCCCCCCCCCCC(=O)NCCOC(=O)CCC(=O)OC(CO)CO [Compound I-8]
- Measured concentration of PEA (analyte) (Beagle, dog, 0 min): 0.33 µM
- Measured concentration of PEA (analyte) (Beagle, dog, 10 min): 0.54 µM
- Measured concentration of PEA (analyte) (Beagle, dog, 20 min): 0.46 µM
- Measured concentration of PEA (analyte) (Beagle, dog, 30 min): 0.44 µM
- Measured concentration of PEA (analyte) (Beagle, dog, 60 min): 0.20 µM
- % Remaining of Initial (Beagle, dog, 0 h): 100%
- % Remaining of Initial (Beagle, dog, 10 min): <1.0%
- % Remaining of Initial (Beagle, dog, 20 min): <1.0%
- % Remaining of Initial (Beagle, dog, 0.5 h): <1.0%
- % Remaining of Initial (Beagle, dog, 1 h): <1.0%
- microsomal CLint at 1 μM (Beagle, dog): > 1380 µL/min/mg
- half-life at 1 μM (Beagle, dog, Half-life): < 1 min
- Measured concentration of PEA (analyte) (CD-1, mouse, 0 min): 0.45 µM
- Measured concentration of PEA (analyte) (CD-1, mouse, 10 min): 0.30 µM
- Measured concentration of PEA (analyte) (CD-1, mouse, 20 min): 0.15 µM
- Measured concentration of PEA (analyte) (CD-1, mouse, 30 min): 0.086 µM
- Measured concentration of PEA (analyte) (CD-1, mouse, 60 min): 0 µM
- % Remaining of Initial (CD-1, mouse, 0 h): 100%
- % Remaining of Initial (CD-1, mouse, 10 min): <1.0%
- % Remaining of Initial (CD-1, mouse, 20 min): <1.0%
- % Remaining of Initial (CD-1, mouse, 0.5 h): <1.0%
- % Remaining of Initial (CD-1, mouse, 1 h): <1.0%
- microsomal CLint at 1 μM (CD-1, mouse): > 1380 µL/min/mg
- half-life at 1 μM (CD-1, mouse, Half-life): < 1 min

Structure (SMILES): CC/C=C\C/C=C\C/C=C\C/C=C\C/C=C\CCCC(=O)OCCNC(=O)CCCCCCCCCCCCCCC [Compound I-5]
- Measured concentration of analyte PEA, 0 min (Beagle, dog, 0 min): 0.025 µM
- Measured concentration of analyte PEA, 10 min (Beagle, dog, 10 min): 0.081 µM
- Measured concentration of analyte PEA, 20 min (Beagle, dog, 20 min): 0.090 µM
- Measured concentration of analyte PEA, 30 min (Beagle, dog, 30 min): 0.087 µM
- Measured concentration of analyte PEA, 60 min (Beagle, dog, 60 min): 0.063 µM
- % Remaining of Initial, 0 min (Beagle, dog, 0 h): 100%
- % Remaining of Initial, 10 min (Beagle, dog, 10 min): 84%
- % Remaining of Initial, 20 min (Beagle, dog, 20 min): 75%
- % Remaining of Initial, 30 min (Beagle, dog, 0.5 h): 75%
- % Remaining of Initial, 60 min (Beagle, dog, 1 h): 67%
- microsomal CLint at 1 μM (Beagle, dog): < 23.1 µL/min/mg
- microsomal CLint at 1 μM [1]: 13.3 µL/min/mg
- half-life at 1 μM (Beagle, dog, Calculated half-life (in parentheses)): 104 min
- half-life at 1 μM (Beagle, dog, Half-life): > 60 min
- Measured concentration of analyte PEA, 0 min (CD-1, mouse, 0 min): 0.048 µM
- Measured concentration of analyte PEA, 10 min (CD-1, mouse, 10 min): 0.080 µM
- Measured concentration of analyte PEA, 20 min (CD-1, mouse, 20 min): 0.052 µM
- Measured concentration of analyte PEA, 30 min (CD-1, mouse, 30 min): 0.048 µM
- Measured concentration of analyte PEA, 60 min (CD-1, mouse, 60 min): 0.024 µM
- % Remaining of Initial, 0 min (CD-1, mouse, 0 h): 100%
- % Remaining of Initial, 10 min (CD-1, mouse, 10 min): 72%
- % Remaining of Initial, 20 min (CD-1, mouse, 20 min): 57%
- % Remaining of Initial, 30 min (CD-1, mouse, 0.5 h): 56%
- % Remaining of Initial, 60 min (CD-1, mouse, 1 h): 55%
- microsomal CLint at 1 μM (CD-1, mouse): 23.6 µL/min/mg
- half-life at 1 μM (CD-1, mouse, Half-life): 59 min

Structure (SMILES): CCCCCCCCCCCCCCCC(=O)NCCOC(=O)CCC(=O)OC(COC(=O)CCC)COC(=O)CCC [Compound I-16]
- Measured concentration of PEA (analyte) (Beagle, dog, 0 min): 0.053 µM
- Measured concentration of PEA (analyte) (Beagle, dog, 10 min): 0.59 µM
- Measured concentration of PEA (analyte) (Beagle, dog, 20 min): 0.48 µM
- Measured concentration of PEA (analyte) (Beagle, dog, 30 min): 0.43 µM
- Measured concentration of PEA (analyte) (Beagle, dog, 60 min): 0.20 µM
- % Remaining of Initial (Beagle, dog, 0 h): 100%
- % Remaining of Initial (Beagle, dog, 10 min): 4.4%
- % Remaining of Initial (Beagle, dog, 20 min): 1.6%
- % Remaining of Initial (Beagle, dog, 0.5 h): 1.4%
- % Remaining of Initial (Beagle, dog, 1 h): 1.5%
- microsomal CLint at 1 μM (Beagle, dog): > 139 µL/min/mg
- microsomal CLint at 1 μM [1]: 618 µL/min/mg
- half-life at 1 μM (Beagle, dog, Half-life): < 10 min
- half-life at 1 μM (Beagle, dog, Half-life, calculated value in parentheses): 2.2 min
- Measured concentration of PEA (analyte) (CD-1, mouse, 0 min): 0.29 µM
- Measured concentration of PEA (analyte) (CD-1, mouse, 10 min): 0.27 µM
- Measured concentration of PEA (analyte) (CD-1, mouse, 20 min): 0.12 µM
- Measured concentration of PEA (analyte) (CD-1, mouse, 30 min): 0.089 µM
- Measured concentration of PEA (analyte) (CD-1, mouse, 60 min): 0.0093 µM
- % Remaining of Initial (CD-1, mouse, 0 h): 100%
- % Remaining of Initial (CD-1, mouse, 10 min): 7.6%
- % Remaining of Initial (CD-1, mouse, 20 min): 3.0%
- % Remaining of Initial (CD-1, mouse, 0.5 h): 2.1%
- % Remaining of Initial (CD-1, mouse, 1 h): 1.8%
- microsomal CLint at 1 μM (CD-1, mouse): > 139 µL/min/mg
- microsomal CLint at 1 μM (CD-1, mouse, calculated value in parentheses): 503 µL/min/mg
- half-life at 1 μM (CD-1, mouse, Half-life): < 10 min
- half-life at 1 μM (CD-1, mouse, Half-life, calculated value in parentheses): 2.8 min
